In patent US9790207B2, “Pan-genomic inhibitors of NS5A protein encoded by HCV, pharmaceutical compositions, intermediates for inhibitor synthesis, and their synthesis and application methods” (priority 2015, dated 2017):
Structures can show the parent of a compound that is named as a salt. Where two headings read alike, the source gives them in different places.

Key:
[1] = Cytotoxicity, cell viability by ATPLite Kit; format: cell-based, human; conditions: human, Huh7 cells (human hepatoma cell line), 10% FBS, maximal inhibition, read-out: Cytotox gT1b 10% FBS max. inh.
Description: The cytotoxicity of the test compounds was studied in parallel using the same cell line, Huh7. Cell viability was determined using the ATPLite Kit (Perkin-Elmer, Boston, USA), according to manufacturer's instructions. 96-well black/transparent bottom plates were seeded with cells at a density of 7.5×10^3 cells per well in 50 μl medium. After 18 hours, compound treatment was initiated by adding 50 μl of compound dilution into the plates. Each compound dilution was tested in triplicates. The cells and inhibitors were then incubated for 96 hours at 37° C./5% CO2. The plates were washed twice with PBS (0.2 ml/well), and then lysed by adding lysis buffer, 0.05 ml/well (all reagents were included with the ATPLite Kit). After rocking for 5 min on a rocking platform, substrate buffer was added (0.05 ml/well). After additional 5-min incubation, the plates were kept in dark for 10 min, and the luminescence was read using TopCount NXT (Packard, Perkin Elmer). CC50 values for all test compounds were determined using XLfit 4.1 software (Table 2).

[2] = test system: HCV gT4a replicon; assay: HCV replicon assay, gT4a; format: cell-based, Hepatitis C virus (HCV); conditions: Hepatitis C virus, GT4A, Huh-7, read-out: gT4a, EC50 (pM) mean
Description: (§1) The HCV replicon assay was used to determine the antiviral activity of compounds of general formula 2 (test compounds). The test cell line used in the HCV Replicon Assay was the human hepatoma cell line Huh7 incorporating the HCV replicons synthesized by an outside vendor.
(§2) 96-well plates were seeded with cells at a density of 7.5×10^3 cells per well in 50 μl of assay media. The compound stock solution was made up freshly in an assay medium (DMEM 1×, Cellgro; cat. #10-013-CV) as a 2× stock. A total of 11 serial 3-fold dilutions of test compounds were prepared from the 2× stock in the assay media ranging from 20 nM-0.2 pM final concentrations. At least 4 hours after seeding the cells, compound treatment was initiated by adding 50 μl of compound dilution to the plates. The final concentrations of compound therefore ranged from 10 nM to 0.1 pM when diluted 1:1 in culture media. The final DMSO concentration was 0.5%. Cells and inhibitors were incubated for 3 days at 37° C./5% CO2. The media was removed from the plates by gentle tapping. The cells were fixed with 100 μl 1:1 acetone:methanol for 1 minute, washed three times with PBS buffer, and then blocked with 150 μl/well 10% Fetal Bovine Serum (FBS) in PBS for 1 hour at room temperature. The cells were then washed three times with PBS buffer and incubated with 100 μl/well anti-hepatitis C core mAb (Affinity BioReagents; cat. # MA1-080, 1 mg/ml stock diluted 1:4,000 in 10% FBS-PBS) for 2 hours at 37° C. Then, the cells were washed three times with PBS and incubated with 100 μl/well HRP-Goat Anti-Mouse antibody (diluted 1:3.500 in 10% FBS-PBS) for 1 hour at 37° C. The cells were then washed three times with PBS and developed with an OPD solution, 100 μl/well (1 OPD tablet+12 ml citrate/phosphate buffer+5 μl 30% H2O2 per plate), for 30 minutes in the dark at room temperature. The reaction was stopped with 2N H2SO4 (100 μl/well), and the absorbance was measured at A490 X on a Victor^3 V 1420 multilabel counter (Perkin Elmer).

[3] = test system: HCV gT1b replicon; assay: HCV replicon assay, gT1b; format: cell-based, Hepatitis C virus (HCV); conditions: Hepatitis C virus, GT1B, Huh-7, Huh7 replicon cells, mean value
Description: as §1, §2

[4] = Bioavailability of new inhibitors in rats; conditions: rat, in vivo
[5] = test system: HCV gT1a replicon; assay: HCV replicon assay, gT1a; format: cell-based, Hepatitis C virus (HCV); conditions: Hepatitis C virus, GT1A, Huh-7; Huh7 replicon cells; mean
Description: as §1, §2

[6] = test system: HCV gT3a replicon; assay: HCV replicon assay, gT3a; format: cell-based, Hepatitis C virus (HCV)
Description: as §1, §2

[7] = test system: HCV gT2a replicon; assay: HCV replicon assay, gT2a; format: cell-based, Hepatitis C virus (HCV); conditions: Hepatitis C virus, GT2A, Huh-7; Huh7 replicon cells; mean
Description: as §1, §2

[8] = test system: HCV gT5a replicon; assay: HCV replicon assay, gT5a; format: cell-based, Hepatitis C virus (HCV); conditions: Hepatitis C virus, GT5A, Huh-7, read-out: gT5a, EC50 (pM) mean
Description: as §1, §2

[9] = test system: HCV Genotype NS5A GT1a; conditions: known inhibitors, literature values; cited from earlier work
[10] = test system: HCV Genotype NS5A GT1b; conditions: known inhibitors, literature values; cited from earlier work
[11] = test system: HCV Genotype NS5A GT4a; conditions: known inhibitors, literature values; cited from earlier work
[12] = test system: HCV Genotype NS5A GT5a; conditions: known inhibitors, literature values; cited from earlier work
[13] = test system: HCV Genotype NS5A GT3a; conditions: known inhibitors, literature values, cited from earlier work
[14] = test system: HCV Genotype NS5A GT2a; conditions: known inhibitors, literature values, cited from earlier work
[15] = known inhibitors, literature values; cited from earlier work
[16] = 10% FBS, read-out: gT1b 10% FBS, EC50 (pM) mean
[17] = 40% NHS, read-out: gT1b 40% NHS, EC50 (pM) mean
[18] = Hepatitis C virus, GT3A, Huh-7, Huh7 replicon cells, mean, read-out: gT3a, EC50 (pM) mean

SMILES	inhibition at 96 h [1]	EC50 [2]	EC50 [3, 16]	EC50 [3, 17]	EC50 [5]	EC50 [6, 18]	EC50 [7]	EC50 [8]	EC50 [9]	EC50 [10]	EC50 [11]	EC50 [14]	also measured
COC(=O)N[C@H](C(=O)N1CCC[C@H]1c1ncc(-c2ccc(C#CC#Cc3cnc([C@@H]4CCCN4C(=O)[C@H](NC(=O)OC)c4ccccc4)[nH]3)c(-c3ccccc3)c2)[nH]1)C(C)C.Cl.Cl [2(7)•2HCl, [(S)-1-((S)-2-{5-[6-(4-{2-[(S)-1-((R)-2-Methoxycarbonylamino-2-phenyl-acetyl)-pyrrolidin-2-yl]-3H-imidazol-4-yl}-buta-1,3-diynyl)-biphenyl-3-yl]-1H-imidazol-2-yl}-pyrrolidine-1-carbonyl)-2-methyl-propyl]-carbamic acid methyl ester dihydrochloride]	32%	8.5 pM	1.92 pM	12.6 pM	22.5 pM	23 pM	5.9 pM	19.8 pM					bioavailability [4]: 31%
COC(=O)N[C@H](C(=O)N1CCC[C@H]1c1ncc(-c2ccc(-c3ccc(-c4cnc([C@@H]5CCCN5C(=O)[C@H](NC(=O)OC)c5ccccc5)[nH]4)cc3)c(Sc3ccccc3)c2)[nH]1)C(C)C [2(24)•2HCl, ((S)-1-{(S)-2-[5-(4′-{2-[(S)-1-((R)-2-Methoxycarbonylamino-2-phenyl-acetyl)-pyrrolidin-2-yl]-3H-imidazol-4-yl}-2-phenylsulfanyl-biphenyl-4-yl)-1H-imidazol-2-yl]-pyrrolidine-1-carbonyl}-2-methyl-propyl)-carbamic acid methyl ester dihydrochloride]	42%	8.3 pM	1.33 pM	8.02 pM	557 pM	28.5 pM	4 pM	21.6 pM					
COC(=O)N[C@H](C(=O)N1CCC[C@H]1c1ncc(-c2ccc(-c3ccc(-c4cnc([C@@H]5CCCN5C(=O)[C@H](NC(=O)OC)c5ccccc5)[nH]4)cc3)c(N(C)c3ccccc3)c2)[nH]1)C(C)C [2(25)•2HCl, [(S)-1-((S)-2-{5-[4′-{2-[(S)-1-((R)-2-Methoxycarbonylamino-2-phenyl-acetyl)-pyrrolidin-2-yl]-3H-imidazol-4-yl}-2-(methyl-phenyl-amino)-biphenyl-4-yl]-1H-imidazol-2-yl}-pyrrolidine-1-carbonyl)-2-methyl-propyl]-carbamic acid methyl ester trihydrochloride]	18%	13.9 pM	1.72 pM	11.5 pM	345 pM	24.2 pM	5.5 pM	43.2 pM					
COC(=O)N[C@H](C(=O)N1CCC[C@H]1c1ncc(-c2cc(F)c(-c3ccc(-c4cnc([C@@H]5CCCN5C(=O)[C@H](NC(=O)OC)c5ccccc5)[nH]4)cc3)c(-c3ccccc3)c2)[nH]1)C(C)C [2(26)•2HCl, ((S)-1-{(S)-2-[5-(6′-Fluoro-4-{2-[(S)-1-((R)-2-methoxycarbonylamino-2-phenyl-acetyl)-pyrrolidin-2-yl]-3H-imidazol-4-yl}-[1,1′;2′,1″]terphenyl-4′-yl)-1H-imidazol-2-yl]-pyrrolidine-1-carbonyl}-2-methyl-propyl)-carbamic acid methyl ester dihydrochloride]	39%	7.9 pM	3.2 pM	14.5 pM	30.3 pM		3.1 pM	14.3 pM					EC50 ([6]; Hepatitis C virus, GT3A, Huh-7, read-out: gT3a, EC50 (pM) mean, Huh7 replicon cells): 9.2 pM; EC50 ([6]; Huh7 replicon cells, mean, dihydrochloride, read-out: gT3a, EC50 (pM) mean): 9.8 pM
COC(=O)N[C@H](C(=O)N1CCC[C@H]1c1ncc(-c2cc(C)c(-c3ccc(-c4cnc([C@@H]5CCCN5C(=O)[C@H](NC(=O)OC)c5ccccc5)[nH]4)cc3)c(-c3ccccc3)c2)[nH]1)C(C)C [2(27)•2HCl, ((S)-1-{(S)-2-[5-(4-{2-[(S)-1-((R)-2-Methoxycarbonylamino-2-phenyl-acetyl)-pyrrolidin-2-yl]-3H-imidazol-4-yl}-6′-methyl-[1,1′;2′,1″]terphenyl-4′-yl)-1H-imidazol-2-yl]-pyrrolidine-1-carbonyl}-2-methyl-propyl)-carbamic acid methyl ester dihydrochloride]	31%	12.3 pM	5.1 pM	14.5 pM	203 pM	25.2 pM	7.9 pM	25.8 pM					
COC(=O)N[C@H](C(=O)N1CCC[C@H]1c1ncc(C#CC#Cc2ccc(-c3cnc([C@@H]4CCCN4C(=O)[C@@H](NC(=O)OC)C(C)C)[nH]3)cc2)[nH]1)C(C)C [AV-4025, Hepavivir]									59 pM	3.4 pM	12 pM	51 pM	EC50 [12]: 172 pM; EC50, pM HCV Genotype NS5A GT5a [12]: insufficient activities; EC50, pM HCV Genotype NS5A GT3a [13]: insufficient activities; Bioavailability in rat, F, % [15]: 65.0%
COC(=O)N[C@H](C(=O)N1CC2(CC2)C[C@H]1c1nc(-c2ccc3c(c2)C(F)(F)c2cc(-c4ccc5[nH]c([C@@H]6[C@H]7CC[C@H](C7)N6C(=O)[C@@H](NC(=O)OC)C(C)C)nc5c4)ccc2-3)c[nH]1)C(C)C [Ledipasvir]									31 pM	5 pM	7 pM	20.8 pM	EC50, pM HCV Genotype NS5A GT5a [12]: insufficient activities; EC50 [13]: 10.1 pM; EC50, pM HCV Genotype NS5A GT3a [13]: insufficient activities; EC50 ([13]; listed as Ledipasvir (GS-5885)): 10100 pM; EC50 ([14]; listed as Ledipasvir (GS-5885)): 20800 pM
COC(=O)N[C@H](C(=O)N1CCC[C@H]1C(=O)Nc1ccc([C@@H]2CC[C@@H](c3ccc(NC(=O)[C@@H]4CCCN4C(=O)[C@@H](NC(=O)OC)C(C)C)cc3)N2c2ccc(C(C)(C)C)cc2)cc1)C(C)C [Ombitasvir]									14.1 pM	5 pM	1.7 pM	12.4 pM	EC50 [12]: 4.3 pM; EC50 [13]: 19.3 pM
